Measurements: the NIST ThermoML archive (doi:10.1016/j.tca.2012.05.004)

Assay: xn = mol fraction of the nth substance listed
Conditions: 101.3 kPa, Liquid, Vibrating tube method

ClCCCl [1,2-dichloroethane] + CCC(C)O
mass density [kg/m3]
Conditions | 288.15 K | 293.15 K | 298.15 K | 303.15 K | 308.15 K | 313.15 K
x2 = 0.0503 | 1231.77 | 1224.62 | 1217.45 | 1210.25 | 1203.02 | 1195.77
x2 = 0.0999 | 1204.93 | 1197.88 | 1190.8 | 1183.69 | 1176.55 | 1169.4
x2 = 0.1498 | 1179.01 | 1172.06 | 1165.09 | 1158.09 | 1151.05 | 1143.99
x2 = 0.1999 | 1153.69 | 1146.88 | 1140.03 | 1133.14 | 1126.22 | 1119.27
x2 = 0.2505 | 1128.43 | 1121.76 | 1115.05 | 1108.3 | 1101.51 | 1094.68
x2 = 0.2963 | 1106.34 | 1099.8 | 1093.22 | 1086.6 | 1079.94 | 1073.22
x2 = 0.3503 | 1080.63 | 1074.29 | 1067.22 | 1061.5 | 1055.06 | 1048.25
x2 = 0.3995 | 1057.91 | 1051.71 | 1045.45 | 1039.11 | 1032.79 | 1026.29
x2 = 0.4501 | 1034.98 | 1028.92 | 1022.81 | 1016.66 | 1010.45 | 1004.19
x2 = 0.4993 | 1013.03 | 1007.13 | 1001.19 | 995.186 | 989.131 | 983.023
x2 = 0.5486 | 991.648 | 985.947 | 980.168 | 974.12 | 968.223 | 962.22
x2 = 0.6 | 969.557 | 963.995 | 958.381 | 952.707 | 946.966 | 941.176
x2 = 0.6493 | 948.744 | 943.35 | 937.897 | 932.387 | 926.811 | 921.174
x2 = 0.6999 | 928.023 | 922.806 | 917.532 | 912.188 | 906.776 | 901.308
x2 = 0.7499 | 907.77 | 902.736 | 897.63 | 892.466 | 887.227 | 881.93
x2 = 0.7998 | 887.96 | 883.21 | 878.173 | 873.288 | 868.11 | 863.093
x2 = 0.8498 | 868.538 | 863.861 | 859.123 | 854.308 | 849.413 | 844.444
x2 = 0.8997 | 849.217 | 844.779 | 840.238 | 835.615 | 830.908 | 826.085
x2 = 0.95 | 829.951 | 825.697 | 821.349 | 816.932 | 812.451 | 807.826

ClCCCl [1,2-dichloroethane] + CC(C)O
mass density [kg/m3]
Conditions | 288.15 K | 293.15 K | 298.15 K | 303.15 K | 308.15 K | 313.15 K
x2 = 0.05 | 1235.82 | 1228.61 | 1221.38 | 1214.13 | 1206.71 | 1199.46
x2 = 0.1004 | 1211.74 | 1204.56 | 1197.38 | 1190.17 | 1182.93 | 1175.66
x2 = 0.1497 | 1188.26 | 1181.19 | 1174.09 | 1166.95 | 1159.78 | 1152.57
x2 = 0.2 | 1164.61 | 1157.64 | 1150.63 | 1143.59 | 1136.5 | 1129.37
x2 = 0.25 | 1141.22 | 1134.37 | 1127.47 | 1120.53 | 1113.54 | 1106.5
x2 = 0.3002 | 1117.88 | 1111.14 | 1104.37 | 1097.54 | 1090.67 | 1083.74
x2 = 0.3502 | 1094.71 | 1088.11 | 1081.46 | 1074.76 | 1068 | 1061.19
x2 = 0.4001 | 1071.46 | 1065.13 | 1058.72 | 1052.15 | 1045.52 | 1038.83
x2 = 0.4503 | 1048.29 | 1042.07 | 1035.7 | 1029.28 | 1022.79 | 1016.23
x2 = 0.4996 | 1025.41 | 1019.32 | 1013.1 | 1006.83 | 1000.49 | 994.079
x2 = 0.5502 | 1002 | 996.011 | 989.957 | 983.831 | 977.648 | 971.39
x2 = 0.6 | 978.769 | 972.943 | 967.056 | 961.099 | 955.079 | 948.987
x2 = 0.6498 | 955.713 | 950.066 | 944.351 | 938.562 | 932.714 | 926.783
x2 = 0.7 | 932.242 | 926.773 | 921.244 | 915.641 | 909.966 | 904.209
x2 = 0.75 | 908.934 | 903.601 | 898.262 | 892.85 | 887.36 | 881.789
x2 = 0.7996 | 885.608 | 880.568 | 875.378 | 870.212 | 864.918 | 859.549
x2 = 0.8495 | 861.973 | 857.114 | 852.182 | 847.228 | 842.144 | 836.984
x2 = 0.8998 | 837.957 | 833.329 | 828.632 | 823.858 | 819.006 | 814.085
x2 = 0.9497 | 813.892 | 809.502 | 805.032 | 800.505 | 795.891 | 791.195

CCCC(C)O (stereo unspecified) [pentan-2-ol] + ClCCCl
mass density [kg/m3]
Conditions | 288.15 K | 293.15 K | 298.15 K | 303.15 K | 308.15 K | 313.15 K
x1 = 0.0509 | 1226.72 | 1219.63 | 1212.52 | 1205.37 | 1198.2 | 1191
x1 = 0.0999 | 1196.47 | 1189.53 | 1182.56 | 1175.56 | 1168.53 | 1161.46
x1 = 0.1497 | 1167.33 | 1160.55 | 1153.74 | 1146.89 | 1140.02 | 1133.12
x1 = 0.2001 | 1139.13 | 1132.52 | 1125.87 | 1119.19 | 1112.48 | 1105.73
x1 = 0.2502 | 1112.6 | 1106.17 | 1099.71 | 1093.19 | 1086.65 | 1080.06
x1 = 0.2998 | 1087.39 | 1081.13 | 1074.82 | 1068.48 | 1062.1 | 1055.67
x1 = 0.3504 | 1062.46 | 1056.4 | 1050.28 | 1044.1 | 1037.89 | 1031.63
x1 = 0.4003 | 1038.87 | 1033 | 1027.05 | 1021.06 | 1015.01 | 1008.92
x1 = 0.4498 | 1016.42 | 1010.71 | 1004.93 | 999.094 | 993.214 | 987.283
x1 = 0.4996 | 994.615 | 989.082 | 983.473 | 977.807 | 972.094 | 966.328
x1 = 0.55 | 973.401 | 967.993 | 962.539 | 957.039 | 951.485 | 945.875
x1 = 0.5998 | 953.123 | 947.916 | 942.637 | 937.302 | 931.911 | 926.465
x1 = 0.6497 | 933.494 | 928.405 | 923.275 | 918.089 | 912.85 | 907.552
x1 = 0.6997 | 914.579 | 909.663 | 904.685 | 899.659 | 894.573 | 889.432
x1 = 0.7493 | 896.637 | 891.863 | 887.037 | 882.154 | 877.213 | 872.217
x1 = 0.8001 | 878.694 | 874.079 | 869.408 | 864.68 | 859.891 | 855.042
x1 = 0.8497 | 861.674 | 857.211 | 852.695 | 848.111 | 843.467 | 838.76
x1 = 0.8991 | 845.438 | 841.13 | 836.763 | 832.331 | 827.833 | 823.267
x1 = 0.9504 | 828.863 | 824.722 | 820.52 | 816.244 | 811.899 | 807.481

CCCCC(C)O (stereo unspecified) [2-hexanol] + ClCCCl
mass density [kg/m3]
Conditions | 288.15 K | 293.15 K | 298.15 K | 303.15 K | 308.15 K | 313.15 K
x1 = 0.0502 | 1223.08 | 1216.04 | 1208.98 | 1201.9 | 1194.78 | 1187.63
x1 = 0.0999 | 1188.97 | 1182.13 | 1175.27 | 1168.37 | 1161.45 | 1154.5
x1 = 0.1504 | 1157.18 | 1150.56 | 1143.9 | 1137.21 | 1130.49 | 1123.74
x1 = 0.2001 | 1126.22 | 1120.72 | 1114.91 | 1108.44 | 1101.9 | 1095.33
x1 = 0.2498 | 1099.98 | 1093.76 | 1087.5 | 1081.2 | 1074.85 | 1068.47
x1 = 0.2995 | 1073.96 | 1068.01 | 1061.96 | 1055.85 | 1049.7 | 1043.51
x1 = 0.3499 | 1048.88 | 1043.06 | 1037.18 | 1031.25 | 1025.28 | 1019.26
x1 = 0.3999 | 1025.35 | 1019.69 | 1013.99 | 1008.24 | 1002.45 | 996.615
x1 = 0.45 | 1003.14 | 997.678 | 992.164 | 986.594 | 980.978 | 975.219
x1 = 0.4994 | 982.243 | 976.929 | 971.582 | 966.175 | 960.716 | 955.218
x1 = 0.5501 | 961.948 | 956.802 | 951.619 | 946.386 | 941.113 | 935.792
x1 = 0.5999 | 942.875 | 937.885 | 932.861 | 927.787 | 922.674 | 917.511
x1 = 0.6498 | 924.759 | 919.925 | 915.048 | 910.129 | 905.161 | 900.15
x1 = 0.6995 | 907.657 | 903.05 | 898.319 | 893.543 | 888.715 | 883.843
x1 = 0.7499 | 891.009 | 886.457 | 881.863 | 877.224 | 872.535 | 867.8
x1 = 0.8004 | 874.928 | 870.513 | 866.056 | 861.55 | 856.996 | 852.392
x1 = 0.8499 | 859.958 | 855.674 | 851.345 | 846.966 | 842.537 | 838.058
x1 = 0.8998 | 845.485 | 841.327 | 837.125 | 832.874 | 828.565 | 824.204
x1 = 0.9482 | 831.995 | 827.968 | 823.889 | 819.755 | 815.567 | 811.322
